Reference: patent US20050119283A1, “Treatment of circadian rhythm disorders with NPY Y5 receptor antagonist” (Pfizer Inc, priority 2003, published 2005)
Several values for one entry are separate records, joined by “and”; a condition that tells them apart may be missing. Identical values can stand only once.

How the values were obtained:
[1] = system: neuronal firing in hamster SCN slices; test: NMDA-induced phase advances of neuronal firing in hamster SCN slices maintained in vitro; format: cell-based; conditions: for Phase shift: mean ± S.E.M.; for reversal of the effect of NPY on NMDA-induced phase advances, % of the NMDA alone experiment: antagonist 10 μM with NMDA 100 μM + NPY 2 ng/ml, in vitro
Protocol: Brain slices containing the SCN were taken on a nominally “preparatory day”. During the subsequent night, at 3-3.5 hours before the scheduled onset of light, drugs were administered to the bath. Neuronal recordings were made beginning early the next day, nominally the “experimental day”, and continued until the peak firing rate could be established. A shift in this peak to an earlier point in time is referred to as a “phase advance”.
Phase advances were measured in vitro by sampling spontaneous activity from neurons in a brain slice preparation of the suprachiasmatic nucleus, herein abbreviated SCN, that is known to contain the circadian clock. The term “brain slice preparation”, as used herein, is defined as a cut section of brain that is placed in a plastic chamber and kept fully functioning by providing it with ACSF (artificial cerebrospinal fluid) that has been warmed and infused with oxygen. Recordings of the spontaneous activity of neurons in the SCN brain slice preparation follow a 24-hour pattern of activity that marks the circadian rhythm. Following application of N-methyl-D-aspartate (NMDA), a compound that mediates the phase advances elicited by light in vivo, neurons in the SCN shift their pattern of firing in vitro to reflect a phase advance. Application of NPY blocks the phase advances elicited by NMDA; NPY Y5 antagonists of formula Ia and IIa block these effects of NPY.
Animals and tissue preparation. Male golden hamsters (LVG, Charles River, 40-60 days old) were housed under a light:dark schedule of 14 hours of constant light and 10 hours of constant dark, with food and water available ad libitum. Hamsters were administered an overdose of halothane anesthesia and decapitated during the subjective day. Hypothalamic slices (500 μm) containing the suprachiasmatic nucleus (SCN) were placed in a gas-fluid interface slice chamber (Medical Systems BSC with Haas top), continuously bathed (1 ml/min) in artificial cerebrospinal fluid (ACSF) containing 125.2 mM NaCl, 3.8 mM KCl, 1.2 mM KH2PO4, 1.8 mM CaCl2, 1 mM MgSO4, 24.8 mM NaHCO3, 10 mM glucose. ACSF (pH 7.4) was supplemented with an antibiotic (gentamicin, 50 mg/l) and a fungicide (amphotericin, 2 mg/l) and maintained at 34.5° C. Warm, humidified 95% oxygen:5% carbon dioxide was continuously provided to the slice preparation.
Electrophysiological studies. Extracellular single unit activity of SCN cells was detected with glass micropipette electrodes filled with ACSF, advanced through the slice using a hydraulic microdrive. The signal was further amplified and filtered, and was continuously monitored by an oscilloscope and audio monitor. Firing rate was analyzed using data acquisition software and a customized program for calculation of descriptive statistics. The term “firing rate”, as used herein, is defined as the rate at which the neurons produce an action potential during the period of recording and is indicative of their level of functioning. Firing rates in the range of 1 to 10 Hz are typical for SCN neurons. A number of experiments in each condition were recorded “blind” where the person recording data had no knowledge of the treatment. One slice was recorded from each animal. A total number of 42 slices was recorded.
Data analysis. Data were initially grouped into 1 h bins and an analysis of variance test was used to determine if any bins differed from the others. If the analysis of variance test indicated significant differences, data were smoothed using 1 h running means with a 15-minute lag. The time of the middle of the 1 h bin with the highest mean firing rate after processing by this smoother was taken as the time of peak firing rate for that slice. Phase advances of individual slices were measured relative to the average time of peak firing of control slices. Significant differences between groups (p<0.05) were determined by ANOVA followed by Bonferroni method (for all vs control comparisons). Means are reported±standard error. […]

[2] = system: hamster wheel running activity; test: Light-induced phase advances of hamster wheel running activity (in vivo); conditions: for Phase shift: mean ± S.E.M.
Text: The in vivo experimental design included recording a behavioral overt rhythm such as running-wheel activity and exposing the animals to an amount of light that is known to produce a phase advance in this pattern of activity. The term “running-wheel activity”, as used herein, is defined as physical activity measured as revolutions of a wheel permanently positioned in the animals' cages and rotated as the animals run in them. The onset of such behavior is a well regarded marker of timing in circadian rhythms. Application of NPY through a cannula aimed directly into the SCN blocks the ability of light to produce a phase advance; NPY Y5 antagonists of formula IIa block these effects of NPY. Furthermore, when given in the absence of NPY, NPY Y5 antagonists of formula IIa enhance the ability of light to produce phase advances.
Surgery. For in vivo treatment, hamsters (80-100 g) were deeply anesthetized with nembutal (80 mg/kg, i.p.), administered an analgesic (buprenorphine, 0.05 mg/kg, s.c.) and mounted in a stereotaxic instrument in order to rigidly fix the skull. They were surgically implanted with a 25 gauge stainless steel guide cannula aimed at the SCN. After a week of recovery under LD 14:10 (14 hours of light, 10 hours of dark), animals were individually transferred to cages (48×27×20 cm) equipped with wheels. Wheel running activity was recorded with ClockLab hardware and software (Actimetrics, Evanston, Ill.).
Drugs and routes of administration. Animals were briefly anesthetized in order to minimize the stress induced by restraint during cannula injections with a mixture of oxygen and isoflurane administered by means of a gas anesthesia machine (2.5% isoflurane to induce anesthesia, 1.5% to maintain anesthesia through a nose-mask). NPY (0.2 μL, 234 μM) was dissolved in ACSF and administered through a cannula with a 1 μL Hamilton syringe connected with polyethylene tubing to a 13.1 mm stainless steel injector cannula (30 gauge). NPY Y5 receptor antagonist (0.6 ml, 10 mg/kg) was dissolved in 32% 2-hydroxypropyl-B-cyclodextrin, and injected s.c. 30 minutes before NPY and/or light stimulation. Light pulses (5 min, 150 lux) were delivered individually by placing animals under two white fluorescent tubes (Phillips, model F30T12); the timing of the light pulses was selected to be in the animals' dark period, 3.5 hours before lights would normally come on.
Animals were allowed at least 10 days under LD (14 hours of light, 10 hours of dark) in order to establish a stable rhythm, and then housed under constant dim red light (DRL) provided by a safelight lamp (Coastar, Inc. <1 lux). Two sets of experiments comprising five treatments were delivered in a counterbalanced design: NPY alone, NPY+light; light alone, light+NPY Y5 antagonist, NPY+NPY Y5 antagonist+light. After two treatments (only one of them involving light stimulation), animals were resynchronized to the previous LD cycle for 7-10 days, and then exposed again to dim red light for the second set of treatments.
Data analysis. For in vivo experiments, data were automatically collected and analyzed with Clocklab software bundle (ActiMetrics Software, Evanston, Ill.). Two investigators blind to the treatment analyzed phase advance magnitudes. Statistical analyses were performed by means of ANOVA followed by Student-Newman-Keul's test.
Phase advances (h) were calculated as the difference in the onset of running behavior in animals kept in dim red light relative to those exposed to combination of light and/or drug treatments. Means±S.E.M. for N=7-12. • a. Light alone experiment in which the animals are exposed to light 3 hours before the scheduled beginning of the animals' period of normal light. There is a resulting phase advance of 1.33 hours. • b. Formula IIa+light experiment in which the animals are pretreated with NPY Y5 antagonist of formula IIa and then exposed to light 3 hours before the scheduled beginning of the animals' period of normal light. […]

[3] = NMDA 100 μM + NPY 2 ng/ml + antagonist 10 μM, 60 minute bath application
[4] = substance alone, bath application 3.5 hours before scheduled light, NPY 2 ng/ml, NMDA 100 μM, antagonist 10 μM 60 min, N=2-6
[5] = Formula IIa 10 mg/kg s.c. + NPY via cannula + light
[6] = substance + light pulse, Formula IIa 10 mg/kg s.c. 30 minutes prior to light, NPY 0.2 μL via cannula
[7] = substance alone, no light, Formula IIa 10 mg/kg s.c., NPY 0.2 μL via cannula to SCN, N=7-12

Compound: O=C1OC2(CCN(c3nc4cc(C(F)(F)F)ccc4[nH]3)CC2)c2ccccc21 [Formula IIa]
- Phase shift [1, 3]: 2.73 ± 0.16 h
- reversal of the effect of NPY on NMDA-induced phase advances, % of the NMDA alone experiment [1]: about 95%
- reversal of the effect of NPY on NMDA-induced phase advances, % of the NMDA alone experiment ([1]; listed as formula IIa): 95%
- effect on the phase of neuronal firing compared to the control experiment ([1]; substance alone): no effect
- Phase shift [1, 4]: 0.07 ± 0.07 h
- enhancement of the light-induced phase advance, % of the light alone experiment ([2]; Formula IIa 10 mg/kg s.c. 30 minutes prior to light, absence of NPY): 160%
- reversal of the effects of NPY on light-induced phase advances, % of the light alone experiment [2, 5]: about 90%
- reversal of the effects of NPY on light-induced phase advances, % of the light alone experiment ([2]; Formula IIa 10 mg/kg s.c. + NPY via cannula + light, listed as formula IIa): 89%
- Phase shift [2, 5]: 1.18 ± 0.27 h
- Phase shift ([2]; Formula IIa 10 mg/kg s.c. + NPY via cannula, no light): -0.20 ± 0.07 h
- effect on the phase of wheel running activity ([2]; formula IIa 10 mg/kg s.c. + NPY, no light): no effect
- Phase shift [2, 6]: 2.11 ± 0.16 h
- effect on the phase of wheel running activity ([2]; substance alone, no light): no effect
- Phase shift [2, 7]: -0.12 ± 0.04 h

Compound: O=C1OC2(CCN(C(=O)Nc3ccc(C(F)(F)F)cn3)CC2)c2ccccc21 [Formula Ia]
- Phase shift [1, 3]: 2.03 ± 0.88 h
- reversal of the effect of NPY on NMDA-induced phase advances, % of the NMDA alone experiment [1]: about 70%
- reversal of the effect of NPY on NMDA-induced phase advances, % of the NMDA alone experiment ([1]; listed as formula Ia): 70%
- effect on the phase of neuronal firing compared to the control experiment ([1]; substance alone): no effect
- Phase shift [1, 4]: 0.32 ± 0.35 h

Compound: CN[C@H](CC(=O)O)C(=O)O [NMDA, N-methyl-D-aspartate, reference compound]
- Phase shift [1, 4]: 2.89 h and 2.89 ± 0.08 h

Compound: Neuropeptide Y [NPY, reference compound]
- blockade of the NMDA-induced phase advance by NPY ([1]; NMDA 100 μM + NPY 2 ng/ml): complete blockade
- Phase shift ([1]; NMDA 100 μM + NPY 2 ng/ml): -0.07 ± 0.09 h
- effect on the phase of neuronal firing compared to the control experiment ([1]; substance alone): no effect
- Phase shift [1, 4]: -0.18 ± 0.17 h
- blockade of the phase advance compared to the light alone experiment ([2]; NPY via cannula + light): complete blockade
- Phase shift [2, 6]: -0.03 ± 0.20 h
- effect on the phase of wheel running activity ([2]; substance alone, no light): no effect
- Phase shift [2, 7]: -0.04 ± 0.11 h
